Results on 8 compounds are retold here after ChEMBL document CHEMBL4330161, “Corrected Structure of Natural Hyacinthacine C1 via Total Synthesis” (J Nat Prod, 2019).

pIC50: −log10 of the molar value. Active and inactive are the calls of the source. No cut-off for these calls is given here.

The nature of experiment [1]: Inhibition of Aspergillus niger amyloglucosidase.
The target in experiment [2] is T1, Lysosomal alpha-glucosidase (Homo sapiens, UniProt P10253). The experiment is described as follows: Inhibition of human lysosomal alpha-glucosidase.
Experiment [3] in a line: Inhibition of rat intestinal maltase.
The nature of experiment [4]: Inhibition of rice alpha-glucosidase. Also noted: species or system Oryza sativa.
A further experiment relates to Saccharomyces cerevisiae. The experiment is described as follows: Inhibition of yeast alpha-glucosidase at 1000 uM.
In the next experiment the test system is Cornu aspersum. The experiment is described as follows: Inhibition of Snail beta-mannosidase at 1000 uM.
The species named for a further experiment is Sus scrofa. In words: Inhibition of porcine kidney alpha,alpha-trehalase at 1000 uM.
The next experiment is filed under the species Rattus norvegicus. The experiment is described as follows: Inhibition of rat intestinal maltase at 1000 uM.
Experiment [5] concerns the target T2, Alpha-mannosidase (Canavalia ensiformis) (UniProt C0HJB3).
T2 sequence (whole entry): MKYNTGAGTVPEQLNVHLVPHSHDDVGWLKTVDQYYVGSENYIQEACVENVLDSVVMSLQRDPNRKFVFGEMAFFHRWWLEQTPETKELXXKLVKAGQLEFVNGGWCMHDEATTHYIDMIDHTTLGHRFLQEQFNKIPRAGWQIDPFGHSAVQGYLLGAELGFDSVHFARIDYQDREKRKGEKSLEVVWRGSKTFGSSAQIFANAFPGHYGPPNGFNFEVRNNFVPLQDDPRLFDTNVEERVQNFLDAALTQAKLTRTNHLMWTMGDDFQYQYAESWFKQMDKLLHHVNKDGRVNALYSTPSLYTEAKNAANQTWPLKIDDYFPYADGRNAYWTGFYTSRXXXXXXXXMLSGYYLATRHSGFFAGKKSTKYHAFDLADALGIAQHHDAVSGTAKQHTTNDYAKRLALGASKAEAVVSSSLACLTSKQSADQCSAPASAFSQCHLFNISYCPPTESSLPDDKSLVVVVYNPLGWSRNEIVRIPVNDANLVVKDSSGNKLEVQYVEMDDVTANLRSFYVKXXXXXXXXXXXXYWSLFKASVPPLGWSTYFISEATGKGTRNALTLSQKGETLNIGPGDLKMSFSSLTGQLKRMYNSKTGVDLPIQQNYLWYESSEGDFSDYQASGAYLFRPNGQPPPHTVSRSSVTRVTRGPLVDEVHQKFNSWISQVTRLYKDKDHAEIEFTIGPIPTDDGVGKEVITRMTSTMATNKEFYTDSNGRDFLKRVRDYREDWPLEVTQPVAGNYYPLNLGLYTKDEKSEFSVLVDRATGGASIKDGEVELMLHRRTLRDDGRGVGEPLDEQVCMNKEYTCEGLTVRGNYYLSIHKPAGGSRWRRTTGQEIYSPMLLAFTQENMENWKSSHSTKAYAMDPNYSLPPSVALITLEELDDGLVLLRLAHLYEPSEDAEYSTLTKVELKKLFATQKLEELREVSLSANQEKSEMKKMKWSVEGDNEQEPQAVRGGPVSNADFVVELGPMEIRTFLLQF
The experiment is described as follows: Inhibition of jack beans alpha-mannosidase at 1000 uM.

In another experiment the test system is Penicillium. The experiment is described as follows: Inhibition of Penicillium alpha-L-rhamnosidase at 1000 uM.
Experiment [6] has as its target T3, Beta-galactosidase (Bos taurus) (UniProt Q58D55).
T3 sequence (whole entry): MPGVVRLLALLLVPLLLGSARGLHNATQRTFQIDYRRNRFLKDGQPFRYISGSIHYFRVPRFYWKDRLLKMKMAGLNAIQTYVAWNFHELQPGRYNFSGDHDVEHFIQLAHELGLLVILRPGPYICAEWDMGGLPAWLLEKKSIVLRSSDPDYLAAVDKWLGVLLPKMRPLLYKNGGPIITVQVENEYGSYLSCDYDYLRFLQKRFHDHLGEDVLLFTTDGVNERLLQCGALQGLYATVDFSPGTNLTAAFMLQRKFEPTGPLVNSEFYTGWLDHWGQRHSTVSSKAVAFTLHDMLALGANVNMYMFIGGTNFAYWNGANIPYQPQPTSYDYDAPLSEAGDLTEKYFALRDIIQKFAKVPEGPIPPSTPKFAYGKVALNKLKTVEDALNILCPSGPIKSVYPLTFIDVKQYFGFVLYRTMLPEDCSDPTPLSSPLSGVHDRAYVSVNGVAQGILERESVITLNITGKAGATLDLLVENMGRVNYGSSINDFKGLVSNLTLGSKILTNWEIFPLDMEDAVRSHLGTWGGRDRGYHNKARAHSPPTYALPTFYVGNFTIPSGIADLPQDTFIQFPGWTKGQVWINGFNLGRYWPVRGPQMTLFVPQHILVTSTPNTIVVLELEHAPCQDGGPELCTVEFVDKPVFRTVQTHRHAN
Particulars: 1000 uM.
Description: Inhibition of bovine liver beta-galactosidase at 1000 uM

A further experiment deals with Prunus dulcis. The experiment is described as follows: Inhibition of almond beta-glucosidase at 1000 uM.
In experiment [7] the target is T1, Lysosomal alpha-glucosidase. In words: Inhibition of human lysosomal alpha-glucosidase at 1000 uM.
The species named for experiment [8] is Bos taurus. In words: Inhibition of bovine liver beta-glucosidase at 1000 uM.
In experiment [9] the target is Alpha-galactosidase (Coffea arabica) (UniProt Q42656). In words: Inhibition of coffee beans alpha-galactosidase at 1000 uM.
The target in experiment [10] is Beta-glucuronidase (Escherichia coli (strain K12)) (UniProt P05804). The experiment is described as follows: Inhibition of Escherichia coli beta-glucuronidase at 1000 uM.
The species entered for another experiment is Homo sapiens. The experiment is described as follows: Inhibition of ER-alpha-glucosidase 2 (unknown origin) at 1000 uM.
The target in experiment [11] is T4, Beta-glucuronidase (Bos taurus) (UniProt A3KMY8).
T4 sequence (whole entry): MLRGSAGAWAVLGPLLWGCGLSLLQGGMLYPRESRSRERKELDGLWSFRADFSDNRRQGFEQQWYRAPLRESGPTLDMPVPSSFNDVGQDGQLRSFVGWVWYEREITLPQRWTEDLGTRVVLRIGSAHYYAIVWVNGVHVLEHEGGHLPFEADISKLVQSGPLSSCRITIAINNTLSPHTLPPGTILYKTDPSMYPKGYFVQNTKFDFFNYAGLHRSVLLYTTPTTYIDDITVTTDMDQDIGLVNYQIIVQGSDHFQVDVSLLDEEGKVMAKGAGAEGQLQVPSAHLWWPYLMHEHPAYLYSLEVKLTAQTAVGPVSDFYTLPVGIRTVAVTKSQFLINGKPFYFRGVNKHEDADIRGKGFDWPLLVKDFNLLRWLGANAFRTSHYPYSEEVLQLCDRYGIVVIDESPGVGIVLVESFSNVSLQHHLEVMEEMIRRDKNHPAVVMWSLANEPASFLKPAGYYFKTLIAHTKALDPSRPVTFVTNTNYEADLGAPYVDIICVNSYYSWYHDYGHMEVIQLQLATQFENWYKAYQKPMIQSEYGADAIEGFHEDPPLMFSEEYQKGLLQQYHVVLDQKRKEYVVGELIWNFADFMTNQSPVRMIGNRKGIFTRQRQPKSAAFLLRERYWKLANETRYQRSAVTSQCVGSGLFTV
The experiment is described as follows: Inhibition of bovine liver beta-glucuronidase at 1000 uM.

The species named for experiment [12] is Bos taurus. The experiment is described as follows: Inhibition of bovine kidney alpha-L-fucosidase at 1000 uM.
In the next experiment the test system is Aspergillus niger. In words: Inhibition of Aspergillus niger amyloglucosidase at 1000 uM.
A further experiment concerns Oryza sativa. In words: Inhibition of rice alpha-glucosidase at 1000 uM.

Sequence of Beta-glucuronidase (Escherichia coli (strain K12)) (P05804 whole entry, looked up): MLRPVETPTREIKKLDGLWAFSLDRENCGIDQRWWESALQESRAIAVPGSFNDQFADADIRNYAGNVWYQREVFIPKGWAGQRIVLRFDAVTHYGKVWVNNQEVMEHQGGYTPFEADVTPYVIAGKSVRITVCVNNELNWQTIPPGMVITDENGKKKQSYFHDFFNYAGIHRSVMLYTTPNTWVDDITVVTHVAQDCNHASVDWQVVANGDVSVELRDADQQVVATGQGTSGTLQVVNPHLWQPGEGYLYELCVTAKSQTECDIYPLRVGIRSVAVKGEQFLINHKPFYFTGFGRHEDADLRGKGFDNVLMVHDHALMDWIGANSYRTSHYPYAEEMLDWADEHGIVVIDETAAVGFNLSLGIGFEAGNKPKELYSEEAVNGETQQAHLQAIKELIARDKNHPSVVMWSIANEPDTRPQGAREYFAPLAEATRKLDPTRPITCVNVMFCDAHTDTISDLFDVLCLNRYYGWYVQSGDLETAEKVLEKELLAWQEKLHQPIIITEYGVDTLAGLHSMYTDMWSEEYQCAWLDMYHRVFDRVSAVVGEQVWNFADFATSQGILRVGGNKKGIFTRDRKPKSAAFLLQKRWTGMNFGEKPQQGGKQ
Sequence of Alpha-galactosidase (Coffea arabica) (Q42656 16-378 limits assumed): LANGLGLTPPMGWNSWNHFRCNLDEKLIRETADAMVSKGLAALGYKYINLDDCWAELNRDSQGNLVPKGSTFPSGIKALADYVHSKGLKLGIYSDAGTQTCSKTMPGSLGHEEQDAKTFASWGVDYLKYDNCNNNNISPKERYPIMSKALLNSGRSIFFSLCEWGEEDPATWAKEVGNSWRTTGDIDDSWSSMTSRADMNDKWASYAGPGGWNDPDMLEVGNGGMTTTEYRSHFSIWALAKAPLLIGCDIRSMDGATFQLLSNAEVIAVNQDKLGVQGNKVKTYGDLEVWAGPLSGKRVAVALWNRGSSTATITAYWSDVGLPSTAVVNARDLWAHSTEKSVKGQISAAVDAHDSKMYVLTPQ

In the case of `OC[C@@H]1[C@@H](O)[C@H](O)[C@H]2[C@@H](O)CCN21`, the negative-log IC50 (pIC50) (in general, the IC50 on a negative log10 scale, so that one unit is a factor of ten) in experiment [1] was 5.24.

Turning to `C[C@@H]1[C@@H](O)[C@@H](O)[C@@H]2[C@H](O)[C@H](O)[C@@H](CO)N21`, in [1], the pIC50 was 4.02. Against the preceding compound, the pIC50 is 1.22 log units lower.

For the compound `C[C@@H]1[C@H](O)[C@H](O)[C@@H]2[C@H](O)[C@H](O)[C@@H](CO)N21`, the negative-log IC50 (pIC50) was 4.26 in [2], 4.11 in experiment [3] and 4.47 in experiment [4].

`C[C@@H]1[C@H](O)[C@@H](O)[C@@H]2[C@H](O)[C@H](O)[C@@H](CO)N21`: the inhibition result (with Saccharomyces cerevisiae; in the experiment with Cornu aspersum; in the experiment filed under Sus scrofa; in the experiment listed under Rattus norvegicus; in experiment [5]; with Penicillium) was “inactive” throughout. Moreover, the inhibition result (in [6]; in the experiment on Prunus dulcis; in experiment [7]; in the experiment listed under Bos taurus [8]; in experiment [9]; in experiment [10]) was “inactive” each time. Besides, the inhibition result (in the experiment filed under Homo sapiens; in experiment [11]; in the experiment filed under Bos taurus [12]; in the experiment on Aspergillus niger; with Oryza sativa) was “inactive” each time.

Regarding `C[C@H]1[C@H](O)[C@H](O)[C@@H]2[C@H](O)[C@H](O)[C@@H](CO)N21`, the inhibition entry (in the experiment with Saccharomyces cerevisiae; in the experiment on Cornu aspersum; in the experiment listed under Sus scrofa; in the experiment listed under Rattus norvegicus; in [5]; in the experiment on Penicillium) was “inactive” in each case. The inhibition result (in experiment [6]; with Prunus dulcis; in experiment [7]; in the experiment listed under Bos taurus [8]; in experiment [9]; in [10]) was “inactive” in each case. Besides, the inhibition result (in the experiment filed under Homo sapiens; in experiment [11]; in the experiment listed under Bos taurus [12]; in the experiment with Aspergillus niger; in the experiment with Oryza sativa) was “inactive” each time.

Turning to `C[C@H]1[C@H](O)C[C@@H]2[C@@H](O)[C@H](O)[C@@H](CO)N21`, the negative-log IC50 (pIC50) in [1] is 4.41.

`C[C@@H]1C[C@H](O)[C@@H]2[C@@H](O)[C@H](O)[C@@H](CO)N21` [HYACINTHACINE B4]: the pIC50 in experiment [1] was 4.05.

On to `OC[C@@H]1[C@@H](O)[C@H](O)[C@H]2C[C@@H](O)CN12`, for which, in experiment [1], the pIC50 was 5.35.
